Test results as given in ChEMBL document CHEMBL3885881, “DrugMatrix”.

Species on record: Rattus norvegicus
Assay: DrugMatrix - Regimen: Daily Repeat
Format: toxicity, organism-based, Sprague-Dawley
Design: regimen Daily Repeat, gender Male, age 6-8 weeks
Conditions: in vivo, po, route oral GAVAGE, vehicle .5 % CMC; for ABSOLUTE BASOPHIL / ABSOLUTE EOSINOPHIL / ABSOLUTE LYMPHOCYTE / ABSOLUTE MONOCYTE / ABSOLUTE SEGMENTED NEUTROPHIL / BASOPHIL / EOSINOPHIL / ERYTHROCYTE COUNT / HEMATOCRIT / HEMOGLOBIN / LEUKOCYTE COUNT / LYMPHOCYTE / MEAN CORPUSCULAR HEMOGLOBIN / MEAN CORPUSCULAR HEMOGLOBIN CONCENTRATION / MEAN CORPUSCULAR VOLUME / MONOCYTE / NEUTROPHIL / NUCLEATED RED BLOOD CELLS / PLATELET COUNT: tissue Blood; for ALANINE AMINOTRANSFERASE / ALBUMIN / ALKALINE PHOSPHATASE / ASPARTATE AMINOTRANSFERASE / BLOOD UREA NITROGEN / CARBON DIOXIDE / CHLORIDE / CHOLESTEROL / CREATINE PHOSPHOKINASE / CREATININE / GLUCOSE / LACTATE DEHYDROGENASE / LIPASE / PHOSPHORUS / POTASSIUM / SODIUM / TOTAL BILIRUBIN / TOTAL PROTEIN / URIC ACID: tissue Plasma
[1] = 0 mg/kg, 72 h, dose level Control, time 3 day
[2] = 0 mg/kg, 120 h, dose level Control, time 5 day
[3] = 44 mg/kg, 72 h, dose level Low, time 3 day

For `Brc1ccccc1` [BROMOBENZENE], the “ABSOLUTE BASOPHIL” value [1] was 0 CELLS/uL, the “ABSOLUTE EOSINOPHIL” value [1] was 15.17 CELLS/uL and the “ABSOLUTE LYMPHOCYTE” value [1] was 10149.83 CELLS/uL. For the same molecule, the “ABSOLUTE MONOCYTE” value [1] was 193.33 CELLS/uL, the “ABSOLUTE SEGMENTED NEUTROPHIL” value [1] was 1575 CELLS/uL and the BASOPHIL [1] was 0%. For the same molecule, the EOSINOPHIL [1] was 0.17%, the “ERYTHROCYTE COUNT” value [1] was 5.53 x10E6/uL and the HEMATOCRIT [1] was 34.7%. For the same molecule, the HEMOGLOBIN [1] was 12.78 G/DL, the “LEUKOCYTE COUNT” value [1] was 11.93 x10E3/uL and the LYMPHOCYTE [1] was 85.5%. For the same molecule, the “MEAN CORPUSCULAR HEMOGLOBIN” value [1] was 23.15 pg, the “MEAN CORPUSCULAR HEMOGLOBIN CONCENTRATION” value [1] was 36.9 G/DL and the “MEAN CORPUSCULAR VOLUME” value [1] was 62.82 fL. The MONOCYTE [1] was 1.5%, the NEUTROPHIL [1] was 12.83% and the “NUCLEATED RED BLOOD CELLS” value [1] was 0.5 /100WBC. For the same molecule, the “PLATELET COUNT” value [1] was 994.17 x10E3/uL, the “ALANINE AMINOTRANSFERASE” value [1] was 48.17 u/L and the ALBUMIN [1] was 4.37 G/DL. The “ALKALINE PHOSPHATASE” value [1] was 436.5 u/L, the “ASPARTATE AMINOTRANSFERASE” value [1] was 83.17 u/L and the “BLOOD UREA NITROGEN” value [1] was 14.67 mg/dL. For the same molecule, the “CARBON DIOXIDE” value [1] was 30.83 mmol/L, the CHLORIDE [1] was 99.17 MEQ/L and the CHOLESTEROL [1] was 86.33 mg/dL. The “CREATINE PHOSPHOKINASE” value [1] was 243.33 u/L, the CREATININE [1] was 0.25 mg/dL and the GLUCOSE [1] was 158 mg/dL. The “LACTATE DEHYDROGENASE” value [1] was 262.33 u/L, the LIPASE [1] was 11 u/L and the PHOSPHORUS [1] was 12.07 mg/dL. For the same molecule, the POTASSIUM [1] was 6.52 MEQ/L, the SODIUM [1] was 142.45 MEQ/L and the “TOTAL BILIRUBIN” value [1] was 0.17 mg/dL. The “TOTAL PROTEIN” value [1] was 6.25 G/DL, the “URIC ACID” value [1] was 1.42 mg/dL and the “ABSOLUTE BASOPHIL” value [2] was 0 CELLS/uL. The “ABSOLUTE EOSINOPHIL” value [2] was 0 CELLS/uL, the “ABSOLUTE LYMPHOCYTE” value [2] was 10076.67 CELLS/uL and the “ABSOLUTE MONOCYTE” value [2] was 124 CELLS/uL. For the same molecule, the “ABSOLUTE SEGMENTED NEUTROPHIL” value [2] was 966 CELLS/uL, the BASOPHIL [2] was 0% and the EOSINOPHIL [2] was 0%. For the same molecule, the “ERYTHROCYTE COUNT” value [2] was 5.57 x10E6/uL, the HEMATOCRIT [2] was 33.37% and the HEMOGLOBIN [2] was 12.73 G/DL. The “LEUKOCYTE COUNT” value [2] was 11.17 x10E3/uL, the LYMPHOCYTE [2] was 90.33% and the “MEAN CORPUSCULAR HEMOGLOBIN” value [2] was 22.9 pg. The “MEAN CORPUSCULAR HEMOGLOBIN CONCENTRATION” value [2] was 38.18 G/DL, the “MEAN CORPUSCULAR VOLUME” value [2] was 59.97 fL and the MONOCYTE [2] was 1%. The NEUTROPHIL [2] was 8.67%, the “NUCLEATED RED BLOOD CELLS” value [2] was 0 /100WBC and the “PLATELET COUNT” value [2] was 1078 x10E3/uL. The “ALANINE AMINOTRANSFERASE” value [2] was 37.17 u/L, the ALBUMIN [2] was 4.2 G/DL and the “ALKALINE PHOSPHATASE” value [2] was 322.17 u/L. For the same molecule, the “ASPARTATE AMINOTRANSFERASE” value [2] was 67.67 u/L, the “BLOOD UREA NITROGEN” value [2] was 14 mg/dL and the “CARBON DIOXIDE” value [2] was 27.67 mmol/L. The CHLORIDE [2] was 102.17 MEQ/L, the CHOLESTEROL [2] was 67.67 mg/dL and the “CREATINE PHOSPHOKINASE” value [2] was 171.83 u/L. For the same molecule, the CREATININE [2] was 0.27 mg/dL, the GLUCOSE [2] was 172 mg/dL and the “LACTATE DEHYDROGENASE” value [2] was 85.33 u/L. The LIPASE [2] was 8.67 u/L, the PHOSPHORUS [2] was 12 mg/dL and the POTASSIUM [2] was 6.09 MEQ/L. For the same molecule, the SODIUM [2] was 144.82 MEQ/L, the “TOTAL BILIRUBIN” value [2] was 0.13 mg/dL and the “TOTAL PROTEIN” value [2] was 6.07 G/DL. For the same molecule, the “URIC ACID” value [2] was 2.13 mg/dL, the “ABSOLUTE BASOPHIL” value [3] was 0 CELLS/uL and the “ABSOLUTE EOSINOPHIL” value [3] was 0 CELLS/uL. The “ABSOLUTE LYMPHOCYTE” value [3] was 8803 CELLS/uL, the “ABSOLUTE MONOCYTE” value [3] was 197 CELLS/uL and the “ABSOLUTE SEGMENTED NEUTROPHIL” value [3] was 1233.33 CELLS/uL. For the same molecule, the BASOPHIL [3] was 0%, the EOSINOPHIL [3] was 0% and the “ERYTHROCYTE COUNT” value [3] was 5.29 x10E6/uL. The HEMATOCRIT [3] was 32.6%, the HEMOGLOBIN [3] was 12.17 G/DL and the “LEUKOCYTE COUNT” value [3] was 10.23 x10E3/uL. The LYMPHOCYTE [3] was 86.33%, the “MEAN CORPUSCULAR HEMOGLOBIN” value [3] was 23 pg and the “MEAN CORPUSCULAR HEMOGLOBIN CONCENTRATION” value [3] was 37.3 G/DL. The “MEAN CORPUSCULAR VOLUME” value [3] was 61.67 fL, the MONOCYTE [3] was 2% and the NEUTROPHIL [3] was 11.67%. The “NUCLEATED RED BLOOD CELLS” value [3] was 0.33 /100WBC, the “PLATELET COUNT” value [3] was 1006 x10E3/uL and the “ALANINE AMINOTRANSFERASE” value [3] was 42.67 u/L. The ALBUMIN [3] was 4.37 G/DL, the “ALKALINE PHOSPHATASE” value [3] was 351 u/L and the “ASPARTATE AMINOTRANSFERASE” value [3] was 74 u/L. The “BLOOD UREA NITROGEN” value [3] was 14 mg/dL, the “CARBON DIOXIDE” value [3] was 30 mmol/L and the CHLORIDE [3] was 100.67 MEQ/L. The CHOLESTEROL [3] was 85 mg/dL, the “CREATINE PHOSPHOKINASE” value [3] was 192.67 u/L and the CREATININE [3] was 0.21 mg/dL. For the same molecule, the GLUCOSE [3] was 153.33 mg/dL, the “LACTATE DEHYDROGENASE” value [3] was 151.33 u/L and the LIPASE [3] was 11.33 u/L. For the same molecule, the PHOSPHORUS [3] was 12.27 mg/dL, the POTASSIUM [3] was 6.3 MEQ/L and the SODIUM [3] was 144.5 MEQ/L. For the same molecule, the “TOTAL BILIRUBIN” value [3] was 0.1 mg/dL, the “TOTAL PROTEIN” value [3] was 6.13 G/DL and the “URIC ACID” value [3] was 1.47 mg/dL.
